The subject of this assay is CD2F1 mice, L1210 leukemia ip, survival T/C. Briefly: NCI In Vivo Anticancer Drug Screen. Data for tumor model L1210 Leukemia (intraperitoneal) in CD2F1 (CDF1) mice. The following applies: higher = longer survival. In a few lines:
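Compound-dosed mice with transplantable tumor versus matched vehicle controls; endpoint ratio T/C reported.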

[1] abbreviates: endpoint: mean survival time, dose: 50.0 mg/kg/injection, schedule: Q01DX009 (ip), vehicle: saline with Tween-80.
Where [2] appears, read: endpoint: mean survival time, dose: 100.0 mg/kg/injection, schedule: Q01DX001 (ip), vehicle: saline with Tween-80.
Where [3] appears, read: endpoint: mean survival time, dose: 100.0 mg/kg/injection, schedule: Q01DX009 (ip), vehicle: saline with Tween-80.
Where [4] appears, read: endpoint: mean survival time, dose: 100.0 mg/kg/injection, schedule: Q04DX003 (ip), vehicle: saline with Tween-80.
[5] abbreviates: endpoint: mean survival time, dose: 200.0 mg/kg/injection, schedule: Q01DX001 (ip), vehicle: saline with Tween-80.
The mark [6] stands for this setting: endpoint: mean survival time, dose: 200.0 mg/kg/injection, schedule: Q01DX009 (ip), vehicle: saline with Tween-80.
The mark [7] stands for this setting: endpoint: mean survival time, dose: 200.0 mg/kg/injection, schedule: Q04DX003 (ip), vehicle: saline with Tween-80.
The mark [8] stands for this setting: endpoint: mean survival time, dose: 400.0 mg/kg/injection, schedule: Q01DX001 (ip), vehicle: saline with Tween-80.
Where [9] appears, read: endpoint: mean survival time, dose: 400.0 mg/kg/injection, schedule: Q01DX009 (ip), vehicle: saline with Tween-80.
[10] abbreviates: endpoint: mean survival time, dose: 400.0 mg/kg/injection, schedule: Q04DX003 (ip), vehicle: saline with Tween-80.

“And” between values parts separate entries of the source, which are not always exact repeats. Equal entries are not always repeated. Toxic doses and inconclusive results are not listed.

As to `COc1ccc(Nc2nc(N)nc3c2ncn3C2OC(CO)C(O)C2O)cc1` (configuration not stated), the T/C (endpoint: mean survival time, dose: 12.5 mg/kg/injection, schedule: Q01DX005 (ip), vehicle: distilled water + Tween-80) is 96 % of control; the T/C (endpoint: mean survival time, dose: 25.0 mg/kg/injection, schedule: Q01DX005 (ip), vehicle: distilled water + Tween-80) is 98 % of control; the T/C (endpoint: mean survival time, dose: 50.0 mg/kg/injection, schedule: Q01DX005 (ip), vehicle: distilled water + Tween-80) is 104 % of control; the T/C (endpoint: mean survival time, dose: 100.0 mg/kg/injection, schedule: Q01DX005 (ip), vehicle: distilled water + Tween-80) is 111 % of control.
Consider `CC(=O)Nc1ncc2nc(C)c(C)nc2n1`, for which, under setting [1], the T/C is 98 % of control.
With `NC(=O)Cn1cnnn1`, the T/C under setting [2] was 102 % of control; the T/C under setting [3] is 98 % of control; the T/C under setting [4] is 101 % of control; the T/C under setting [5] was 100 % of control; the T/C under setting [6] was 101 % of control; the T/C under setting [7] is 95 % of control. Also, the T/C was 96 % of control under setting [8], 98 % of control under setting [9] and 95 % of control under setting [10].
For `c1cc(NC2CCCCC2)ccc1CN1CCOCC1`, the T/C is 99 % of control and 100 % of control (endpoint: mean survival time, dose: 12.5 mg/kg/injection, schedule: Q01DX009 (ip), vehicle: saline + Tween-80 + alcohol); 99 % of control and 102 % of control (endpoint: mean survival time, dose: 25.0 mg/kg/injection, schedule: Q01DX009 (ip), vehicle: saline + Tween-80 + alcohol); 97 % of control and 100 % of control (endpoint: mean survival time, dose: 50.0 mg/kg/injection, schedule: Q01DX009 (ip), vehicle: saline + Tween-80 + alcohol); 99 % of control and 103 % of control (endpoint: mean survival time, dose: 100.0 mg/kg/injection, schedule: Q01DX009 (ip), vehicle: saline + Tween-80 + alcohol); 94 % of control and 100 % of control (endpoint: mean survival time, dose: 200.0 mg/kg/injection, schedule: Q01DX009 (ip), vehicle: saline + Tween-80 + alcohol); 97 % of control and 100 % of control (endpoint: mean survival time, dose: 400.0 mg/kg/injection, schedule: Q01DX009 (ip), vehicle: saline + Tween-80 + alcohol).
Turning to `O=C(c1ccccc1CO)N1CCOCC1`, the T/C (endpoint: mean survival time, dose: 12.5 mg/kg/injection, schedule: Q04DX002 (ip), vehicle: saline) was 98 % of control; the T/C (endpoint: mean survival time, dose: 25.0 mg/kg/injection, schedule: Q04DX002 (ip), vehicle: saline) was 94 % of control; the T/C (endpoint: mean survival time, dose: 50.0 mg/kg/injection, schedule: Q04DX002 (ip), vehicle: saline) was 94 % of control.
Turning to `CCN(CC)CCCNC1=C(Cl)C(=O)c2ccccc2C1=O`, the T/C runs as follows: (endpoint: mean survival time, dose: 6.25 mg/kg/injection, schedule: Q01DX009 (ip), vehicle: saline with Tween-80) 100 % of control; (endpoint: mean survival time, dose: 12.5 mg/kg/injection, schedule: Q01DX009 (ip), vehicle: saline with Tween-80) 94 % of control; (endpoint: mean survival time, dose: 25.0 mg/kg/injection, schedule: Q01DX009 (ip), vehicle: saline with Tween-80) 103 % of control.
`CNc1nc(SC)nc2c1cnn2C1OC(CO)C(O)C1O` (configuration not stated): the T/C reads like this: (endpoint: median survival time, dose: 10.75 mg/kg/injection, schedule: Q01DX005 (ip), vehicle: saline with Tween-80) 103 % of control; (endpoint: median survival time, dose: 21.5 mg/kg/injection, schedule: Q01DX005 (ip), vehicle: saline with Tween-80) 97 % of control; (endpoint: median survival time, dose: 43.0 mg/kg/injection, schedule: Q01DX005 (ip), vehicle: saline with Tween-80) 107 % of control; (endpoint: median survival time, dose: 86.0 mg/kg/injection, schedule: Q01DX005 (ip), vehicle: saline with Tween-80) 100 % of control.
`[Cl][Pt][Cl].c1ccc([AsH](CC[AsH](c2ccccc2)c2ccccc2)c2ccccc2)cc1`: the T/C reads like this: (endpoint: mean survival time, dose: 25.0 mg/kg/injection, schedule: Q04DX003 (ip), vehicle: saline with Tween-80) 94 % of control; (endpoint: mean survival time, dose: 50.0 mg/kg/injection, schedule: Q04DX003 (ip), vehicle: saline with Tween-80) 88 % of control; under setting [4], 96 % of control.
Take `CCC1(O)C(=O)OCc2c1cc1n(c2=O)Cc2cc3cc(C)ccc3nc2-1` (configuration not stated): the T/C runs as follows: (endpoint: median survival time, dose: 10.0 mg/kg/injection, schedule: Q04DX002 (ip), vehicle: saline with Tween-80) 151 % of control and 207 % of control; (endpoint: median survival time, dose: 20.0 mg/kg/injection, schedule: Q04DX002 (ip), vehicle: saline with Tween-80) 151 % of control and 192 % of control; (endpoint: median survival time, dose: 40.0 mg/kg/injection, schedule: Q04DX002 (ip), vehicle: saline with Tween-80) 162 % of control and 195 % of control; (endpoint: median survival time, dose: 80.0 mg/kg/injection, schedule: Q04DX002 (ip), vehicle: saline with Tween-80) 186 % of control; (endpoint: median survival time, dose: 160.0 mg/kg/injection, schedule: Q04DX002 (ip), vehicle: saline with Tween-80) 114 % of control.
Take `O=C(O)Cc1ccc(Cl)c(Cl)c1`: the T/C is 97 % of control (endpoint: mean survival time, dose: 50.0 mg/kg/injection, schedule: Q04DX003 (ip), vehicle: other); 100 % of control (endpoint: mean survival time, dose: 100.0 mg/kg/injection, schedule: Q04DX003 (ip), vehicle: other); 96 % of control (endpoint: mean survival time, dose: 200.0 mg/kg/injection, schedule: Q04DX003 (ip), vehicle: other).
As to `CCOC(=O)C1=C(C)/C(=C/c2[n-]c(C)c(C(=O)OCC)c2C)N=C1C.CCOC(=O)C1=C(C)/C(=C/c2[n-]c(C)c(C(=O)OCC)c2C)N=C1C.[Co+2]`, the T/C is, setting by setting: (endpoint: mean survival time, dose: 50.0 mg/kg/injection, schedule: Q01DX001 (ip), vehicle: saline with Tween-80) 91 % of control; under setting [5], 87 % of control; under setting [8], 91 % of control.
For the compound `OC(c1ccccc1)(c1ccccc1)c1cc2ccccc2[nH]1`, the T/C under setting [2] was 89 % of control and the T/C under setting [8] is 89 % of control.
As to `COc1cc(C(C)=O)cc(OCc2ccccc2)c1OC`, the T/C was 100 % of control under setting [3], 102 % of control under setting [6] and 96 % of control under setting [9].
Consider `COc1ncn(C2CC(OC(=O)c3ccc(C)cc3)C(COC(=O)c3ccc(C)cc3)O2)c(=O)n1` (configuration not stated), for which the T/C under setting [7] was 86 % of control.
With `C#CC[N+](CCO)(CCO)CCCCCCCCCCCCCCCCCC`, the T/C (endpoint: mean survival time, dose: 12.5 mg/kg/injection, schedule: Q04DX002 (ip), vehicle: saline with Tween-80) is 101 % of control; the T/C (endpoint: mean survival time, dose: 25.0 mg/kg/injection, schedule: Q04DX002 (ip), vehicle: saline with Tween-80) is 101 % of control; the T/C (endpoint: mean survival time, dose: 50.0 mg/kg/injection, schedule: Q04DX002 (ip), vehicle: saline with Tween-80) is 101 % of control.
On to `CC(C)(C)n1cc(C(=O)c2ccccc2)cc1-c1ccccc1`, for which the T/C was 91 % of control under setting [4], 92 % of control under setting [7] and 86 % of control under setting [10].
Turning to `O=c1oc2ccc(Cl)cc2c(Nc2ccccc2)c1Cl`, the T/C by setting is: under setting [2], 93 % of control; under setting [5], 93 % of control; under setting [8], 90 % of control.
For the compound `CC(=O)OC1CCCCC1OC(C)=O` (configuration not stated), the T/C runs as follows: under setting [1], 92 % of control; under setting [3], 92 % of control; under setting [6], 103 % of control.

Source of the values: PubChem BioAssay AID256 (DTP/NCI, 2004).
